Here are results for 16 compounds from ChEMBL document CHEMBL4382291, “Aminopyrazole Carboxamide Bruton's Tyrosine Kinase Inhibitors. Irreversible to Reversible Covalent Reactive Group Tuning” (ACS Med Chem Lett, 2019).

The structures appear in SMILES notation.

Data set [1] concerns the target Proto-oncogene tyrosine-protein kinase Src (Homo sapiens, UniProt P12931). In words: Inhibition of full-length recombinant human C-terminal His-tagged SRC cytoplasmic domain expressed in baculovirus expression system using FAM-Srctide peptide as substrate preincubated for 1 hr followed by substrate addition and measured after 1 hr by TR-FRET Lanthascreen assay.
Data set [2] deals with T1, Tyrosine-protein kinase BTK (Homo sapiens, UniProt Q06187).
Description: Inhibition of full-length human His-tagged BTK expressed in baculovirus expression system using FAM-Srctide peptide as substrate preincubated for 1 hr followed by substrate addition and measured after 1 hr by TR-FRET Lanthascreen assay
For data set [3], the target named is Epidermal growth factor receptor (Homo sapiens, UniProt P00533).
Data set [4] is described as follows: Cytotoxicity against human THLE cells. It is filed as cell-based.
The target of data set [5] is Tyrosine-protein kinase BTK (Homo sapiens, UniProt Q06187, C481S). In words: Inhibition of full-length human C-terminal His6-tagged BTK C481S mutant expressed in Sf9 insect cells using FAM-Srctide peptide as substrate preincubated for 1 hr followed by substrate addition and measured after 1 hr by TR-FRET Lanthascreen assay.
The target in data set [6] is T1, Tyrosine-protein kinase BTK. The source holds these as a separate data set.
Description: Reversible inhibition of full-length human His-tagged BTK expressed in baculovirus expression system assessed as apparent dissociation half life by kinase tracer 236 based TR-FRET assay
The target is the same in data set [7]. Kind of data set: Inhibition of BTK in goat anti-human IgM F(ab')2-stimulated human whole blood assessed as suppression of CD69 expression on B cells pretreated for 1 hr followed by goat anti-human IgM F(ab')2-stimualtion and measured after 3 hrs by Fix/Lyse reagent based flow cytometry. It is filed as tissue-based. Background: In flow cytometry, cells or beads pass a laser one at a time.

Data set [8] can be described thus: Permeability in RRCK cells. To be noted: dog, MDCK; read-out: permeability. In kind it is ADME, cell-based, Canis lupus familiaris, MDCKII-LE.
The nature of data set [9]: Oral bioavailability in Wistar Han rat at 1 mg/kg administered via gavage by LC-MS/MS analysis. In kind it is ADME, organism-based. To be noted: in vivo.
Data set [10] has as its target T1, Tyrosine-protein kinase BTK. Kind of data set: Inhibition of BTK in human whole blood assessed as reduction in anti-human IgE antibody-stimulated histamine release pretreated for 2 hrs followed by anti-human IgE antibody-stimulation and measured after 30 mins by ELISA. In kind it is tissue-based.
Data set [11] is described as follows: Clearance in human microsomes. In kind it is ADME, Microsome.

Tyrosine-protein kinase BTK (Homo sapiens, UniProt Q06187, C481S), sequence (Q06187 2-659 C481S limits assumed): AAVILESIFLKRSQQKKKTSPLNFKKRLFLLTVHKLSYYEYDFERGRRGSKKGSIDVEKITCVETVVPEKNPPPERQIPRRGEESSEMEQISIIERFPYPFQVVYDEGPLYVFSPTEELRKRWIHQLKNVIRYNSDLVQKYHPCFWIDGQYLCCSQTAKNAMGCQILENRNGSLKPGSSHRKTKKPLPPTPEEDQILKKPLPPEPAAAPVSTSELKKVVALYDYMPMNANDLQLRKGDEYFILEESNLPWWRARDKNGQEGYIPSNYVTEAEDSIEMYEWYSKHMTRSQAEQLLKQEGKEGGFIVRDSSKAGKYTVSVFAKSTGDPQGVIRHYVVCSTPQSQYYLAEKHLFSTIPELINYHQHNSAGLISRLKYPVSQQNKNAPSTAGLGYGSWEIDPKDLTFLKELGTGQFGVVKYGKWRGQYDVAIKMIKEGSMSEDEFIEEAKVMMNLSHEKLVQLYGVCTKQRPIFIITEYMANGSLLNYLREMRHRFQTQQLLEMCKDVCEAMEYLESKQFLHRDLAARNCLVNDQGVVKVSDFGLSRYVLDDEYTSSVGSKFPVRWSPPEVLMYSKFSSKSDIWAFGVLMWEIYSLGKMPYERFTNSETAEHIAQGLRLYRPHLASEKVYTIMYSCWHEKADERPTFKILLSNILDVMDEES
T1 sequence (Q06187 whole entry): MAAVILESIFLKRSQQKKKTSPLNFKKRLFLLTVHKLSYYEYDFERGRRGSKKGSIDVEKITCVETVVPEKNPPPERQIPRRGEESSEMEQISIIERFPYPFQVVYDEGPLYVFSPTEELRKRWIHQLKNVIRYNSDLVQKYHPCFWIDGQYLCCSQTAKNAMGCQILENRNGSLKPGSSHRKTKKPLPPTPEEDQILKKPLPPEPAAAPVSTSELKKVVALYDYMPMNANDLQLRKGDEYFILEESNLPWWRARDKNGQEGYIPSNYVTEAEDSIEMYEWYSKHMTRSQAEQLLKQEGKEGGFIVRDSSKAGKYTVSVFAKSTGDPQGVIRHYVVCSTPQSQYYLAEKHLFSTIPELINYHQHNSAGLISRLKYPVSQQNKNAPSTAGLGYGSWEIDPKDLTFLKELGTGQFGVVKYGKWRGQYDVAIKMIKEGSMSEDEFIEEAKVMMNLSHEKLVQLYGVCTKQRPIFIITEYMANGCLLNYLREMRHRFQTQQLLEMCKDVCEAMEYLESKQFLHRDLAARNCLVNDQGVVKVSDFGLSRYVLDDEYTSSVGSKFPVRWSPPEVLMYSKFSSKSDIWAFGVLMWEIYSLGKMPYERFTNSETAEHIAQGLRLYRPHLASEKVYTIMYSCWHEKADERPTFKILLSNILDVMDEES
Proto-oncogene tyrosine-protein kinase Src, sequence (P12931 2-536 limits assumed): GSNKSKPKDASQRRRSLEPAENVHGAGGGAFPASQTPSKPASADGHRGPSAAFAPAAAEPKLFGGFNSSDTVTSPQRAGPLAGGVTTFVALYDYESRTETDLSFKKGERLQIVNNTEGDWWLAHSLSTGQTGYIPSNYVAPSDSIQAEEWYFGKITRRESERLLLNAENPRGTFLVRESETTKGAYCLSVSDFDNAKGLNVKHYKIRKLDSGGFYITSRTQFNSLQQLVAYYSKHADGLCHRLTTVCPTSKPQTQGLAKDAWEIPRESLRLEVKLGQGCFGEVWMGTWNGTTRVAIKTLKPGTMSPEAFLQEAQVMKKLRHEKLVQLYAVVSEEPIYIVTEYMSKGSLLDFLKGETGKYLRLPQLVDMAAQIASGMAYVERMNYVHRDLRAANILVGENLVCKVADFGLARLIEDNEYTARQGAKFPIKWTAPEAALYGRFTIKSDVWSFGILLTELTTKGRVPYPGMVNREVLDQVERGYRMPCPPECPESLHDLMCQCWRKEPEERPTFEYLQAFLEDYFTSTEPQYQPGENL
Epidermal growth factor receptor, sequence (P00533 whole entry): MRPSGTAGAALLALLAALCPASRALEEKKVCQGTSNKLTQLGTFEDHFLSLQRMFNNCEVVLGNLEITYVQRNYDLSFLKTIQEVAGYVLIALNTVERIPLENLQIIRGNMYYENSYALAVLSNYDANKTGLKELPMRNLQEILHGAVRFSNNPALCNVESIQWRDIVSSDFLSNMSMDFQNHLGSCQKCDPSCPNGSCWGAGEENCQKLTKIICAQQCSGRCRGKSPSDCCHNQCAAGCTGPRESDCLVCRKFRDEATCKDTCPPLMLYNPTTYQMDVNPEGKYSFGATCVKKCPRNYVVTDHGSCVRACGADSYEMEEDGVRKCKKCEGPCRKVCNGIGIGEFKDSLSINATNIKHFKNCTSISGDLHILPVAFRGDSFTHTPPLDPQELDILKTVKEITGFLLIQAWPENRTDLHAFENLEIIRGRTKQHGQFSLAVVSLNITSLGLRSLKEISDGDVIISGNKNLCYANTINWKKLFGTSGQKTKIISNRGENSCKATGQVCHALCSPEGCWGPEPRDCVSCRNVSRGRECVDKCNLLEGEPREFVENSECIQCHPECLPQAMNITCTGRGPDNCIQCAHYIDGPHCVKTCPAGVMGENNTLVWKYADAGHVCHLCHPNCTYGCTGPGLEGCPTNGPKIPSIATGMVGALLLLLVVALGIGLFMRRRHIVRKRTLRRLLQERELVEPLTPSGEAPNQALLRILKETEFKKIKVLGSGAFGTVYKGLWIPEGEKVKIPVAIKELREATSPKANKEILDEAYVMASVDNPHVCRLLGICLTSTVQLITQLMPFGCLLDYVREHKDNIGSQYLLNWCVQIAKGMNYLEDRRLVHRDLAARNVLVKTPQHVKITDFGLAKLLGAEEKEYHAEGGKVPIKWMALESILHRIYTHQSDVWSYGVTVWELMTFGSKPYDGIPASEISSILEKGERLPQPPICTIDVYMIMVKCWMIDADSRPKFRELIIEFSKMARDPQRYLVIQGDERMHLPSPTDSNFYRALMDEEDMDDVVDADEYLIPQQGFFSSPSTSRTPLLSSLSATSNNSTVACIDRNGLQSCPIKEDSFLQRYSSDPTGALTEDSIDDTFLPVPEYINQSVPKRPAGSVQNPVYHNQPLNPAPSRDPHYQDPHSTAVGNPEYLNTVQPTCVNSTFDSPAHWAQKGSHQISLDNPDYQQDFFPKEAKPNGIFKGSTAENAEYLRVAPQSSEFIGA

For the compound `C=CC(=O)N1CCC[C@@H](n2nc(-c3ccc(Oc4ccc(F)cc4F)cc3)c(C(N)=O)c2N)C1`, the IC50 (commonly the midpoint of a concentration-inhibition curve) in [1] worked out at 4030 nM; in data set [2], 0.25 nM; in data set [3], 26 nM; in [4], 15000 nM; in [5], 17 nM. In data set [6], this compound yielded a T1/2 of over 24 h.
Regarding `C/C=C/C(=O)N1CCC[C@@H](n2nc(-c3ccc(Oc4ccc(F)cc4F)cc3)c(C(N)=O)c2N)C1`, the IC50 was 3410 nM in data set [1]; 61 nM in [2]; over 20000 nM in data set [3]; 149000 nM in data set [4]; 66 nM in [5]. Further, the T1/2 in data set [6] was over 24 h.
Regarding `C=C(F)C(=O)N1CCC[C@@H](n2nc(-c3ccc(Oc4ccc(F)cc4F)cc3)c(C(N)=O)c2N)C1`, the half-maximal inhibitory concentration (IC50) came to 6480 nM in data set [1], 570 nM in data set [3], 67000 nM in data set [4] and 170 nM in data set [5]. The T1/2 in data set [6] is over 24 h.
As for `NC(=O)c1c(-c2ccc(Oc3ccc(F)cc3F)cc2)nn([C@@H]2CCCN(C(=O)/C=C/CF)C2)c1N`, the IC50 in data set [1] is 3140 nM; in data set [2], 2.7 nM; in data set [4] it was 49000 nM; in data set [5] it was 90 nM. This compound showed a T1/2 in [6] of over 24 h.
As to `N#CN1CCC[C@@H](n2nc(-c3ccc(Oc4ccc(F)cc4F)cc3)c(C(N)=O)c2N)C1`, the IC50 in data set [7] came to 53 nM; in data set [1], 1630 nM; in [2], 1.5 nM; in data set [3] it was 16800 nM; in [4] it was 137000 nM; in data set [10], 64 nM. The compound further had an IC50 in data set [5] of 43 nM. The Papp in data set [8] is over 10 ×10⁻⁶ cm/s. In data set [9], the bioavailability – broadly, dose-corrected exposure relative to a reference, in per cent – lay within 76 to 93%. Also, in data set [11], the microsomal CLint (usually a measure of how fast metabolising enzymes remove a compound, apart from limits set by blood flow) was under 8 µL/min/mg. In data set [6], this compound returned a T1/2 of 6 h.
Compound `C=CC(=O)N1CCC[C@@H](n2nc(-c3ccc(Oc4ccccc4)cc3)c3c(N)ncnc32)C1` [IBRUTINIB] came in with an IC50 in [4] of 11000 nM.
Consider `N#CN1CCC[C@@H](n2nc(-c3ccc(Oc4ncc(Cl)cc4F)cc3)c(C(N)=O)c2N)C1`, for which the IC50 in data set [7] was 89 nM; in [1], over 20000 nM; in data set [3], over 20000 nM; in [10] it was 50 nM; in [5] it was 230 nM. Besides, the Papp in data set [8] is over 10 ×10⁻⁶ cm/s. Also, the bioavailability in data set [9] fell in the range of 76 to 93%. In addition, the microsomal CLint in data set [11] is under 8 µL/min/mg. This compound returned a T1/2 in [6] of 5 h.
As for `N#CN1CCC[C@@H](n2nc(-c3ccc(Oc4ccc(Cl)cc4)cc3)c(C(N)=O)c2N)C1`, the IC50 in data set [7] is 46 nM; in data set [1] it was 1400 nM; in data set [10], 21 nM; in data set [5], 48 nM. The Papp in data set [8] was over 10 ×10⁻⁶ cm/s. The bioavailability in [9] was in the range of 76 to 93%. Also, the microsomal CLint in data set [11] was under 8 µL/min/mg. This compound also gave a T1/2 in data set [6] of 6 h.
Consider `C=C(C)C(=O)N1CCC[C@@H](n2nc(-c3ccc(Oc4ccc(F)cc4F)cc3)c(C(N)=O)c2N)C1`, for which the IC50 in [1] is 3350 nM; in data set [2], 247 nM; in [3], over 20000 nM; in [5] it was 176 nM.
For `NC(=O)c1c(-c2ccc(Oc3ccc(F)cc3F)cc2)nn([C@@H]2CCCN(C(=O)/C=C/CO)C2)c1N`, the IC50 in data set [1] stood at 4610 nM; in data set [3], 2910 nM; in [4], 43000 nM; in [5], 33 nM. The compound also yielded a T1/2 in data set [6] of over 24 h.
As to `N#CN1CCC[C@@H](n2nc(-c3ccc(Oc4ccccc4)cc3)c(C(N)=O)c2N)C1`, the IC50 was found to be 4.2 nM in data set [1], 0.37 nM in data set [2], 1710 nM in data set [3] and 2.8 nM in [5]. Moreover, the T1/2 in data set [6] was 7 h.
Take `NC(=O)c1c(-c2ccc(Oc3ccc(F)cc3F)cc2)nn([C@@H]2CCCN(C(=O)/C=C/C(F)F)C2)c1N`: the IC50 in data set [1] is 5840 nM; in data set [2] it was 0.41 nM; in data set [4] it was 8000 nM; in [5], 115 nM. The T1/2 in data set [6] was over 24 h.
Take `N#CN1CCC[C@@H](n2nc(-c3ccc(Oc4cccc(C(F)(F)F)n4)cc3)c(C(N)=O)c2N)C1`: the IC50 in [7] is 33 nM; in [1] it was 14400 nM; in data set [3], over 20000 nM; in [10], 42 nM; in data set [5], 36 nM. The Papp in [8] is over 10 ×10⁻⁶ cm/s. This compound also had a bioavailability in [9] of 76 to 93%. In addition, the microsomal CLint in data set [11] was under 8 µL/min/mg. Moreover, the T1/2 in [6] was found to be 3 h.
Turning to `CN(C)C/C=C/C(=O)N1CCC[C@@H](n2nc(-c3ccc(Oc4ccc(F)cc4F)cc3)c(C(N)=O)c2N)C1`, the IC50 in [1] was 370 nM; in data set [2], 3.7 nM; in [3] it was 149 nM; in data set [4] it was 15000 nM; in data set [5], 65 nM. The T1/2 in data set [6] was over 24 h.
For the compound `C=CC(=O)N1CCC[C@@H](n2nc(-c3ccc(Oc4ccc(Cl)cc4)cc3)c(C(N)=O)c2N)C1`, the IC50 in data set [1] stood at 72 nM; in [2], 0.18 nM; in data set [3], 15 nM.
In the case of `N#CN1CCC[C@@H](n2nc(-c3ccc(Oc4ccc(Cl)cn4)cc3)c(C(N)=O)c2N)C1`, the IC50 in data set [7] is 45 nM; in [1] it was over 20000 nM; in data set [2] it was 6.2 nM; in data set [3], 15400 nM; in data set [10] it was 95 nM; in [5], 92 nM. In addition, the Papp in [8] was over 10 ×10⁻⁶ cm/s. Besides, the bioavailability in [9] was 76 to 93%. The same compound displayed a microsomal CLint in [11] of under 8 µL/min/mg. Further, in data set [6], the T1/2 came to 7 h.
